Structures are written as SMILES. Bounds are passed on as bounds.

Consider 5 compounds from patent publication US20220324835A1 (Nurix Therapeutics, Inc., priority 2018, published 2022).

Experiment [1] deals with anergic human T-cells. As to the kind of experiment: Anergic T-cell activation assessed by IFNγ secretion (ionomycin-induced anergy). The experiment is classed as cell-based. Conditions: anergic T-cells re-challenged with anti-CD3 and anti-CD28 for 24 hours, read-out: IFNγ Fold change from baseline. The text has this:
Peripheral blood mononuclear cells (PBMC) were obtained either: 1) by using Ficoll-Paque™ (GE Healthcare) for separation of peripheral blood hematopoietic cells from buffy coats of healthy human donors; or 2) directly from LeukoPak donations. Total human primary T-cells were isolated from the PBMCs utilizing negative selection with commercial kits following the manufacturer's protocol (Miltenyi Catalog #130-096-535 (i.e., cocktail of antibodies against surface markers CD14, CD15, CD16, CD19, CD34, CD36, CD56, CD123 and CD235a were incubated with the PBMCs before passing the samples by magnetic beads for removal of cells expressing those surface markers) or StemCells Catalog #17951) to yield >95% CD3+ cells assessed by flow cytometry. The cells were activated with immobilized anti-CD3 antibody (OKT3) and soluble anti-CD28 antibody (28.2) for two days at which time they are washed and allowed to rest for three days in the absence of stimulation. They were then treated with ionomycin (Sigma) for 18-24 hours to induce anergy. Following two washes to remove the ionomycin from the samples, Cbl-b inhibitor compounds were added to the cells at the indicated concentrations (e.g. 10, 1.11 and 0.37 μM) and incubated for 1 hour. The cells were then re-challenged with anti-CD3 antibody and anti-CD28 antibody for 24 hours at which point cell free supernatants were collected and assessed for cytokines (e.g., IFNγ) by ELISA (R&D Systems or Peprotech) or Luminex multiplex kits (Procarta Life Technologies) following manufacturer's protocols.
Cbl-b inhibitors were tested to determine their ability to induce or enhance secretion of cytokines from anergic T-cells (e.g. IFNγ), which is indicative of decreased T-cell tolerance.
Readouts were reported as fold change over baseline. Baseline for this study was the measurement obtained from anergic human T-cells stimulated with immobilized anti-CD3 and soluble anti-CD28, wherein the T-cells were not incubated with a Cbl-b inhibitor (Table 7). For IFNγ changes greater than 2.5-fold over baseline were considered a positive response (Table 7). Compounds were ranked into bins according to their readout as follows for IFNγ: A indicates ≤2.50, B indicates 2.51-4.00 and C indicates >4.01.

Experiment [2] deals with T-cell. As to the kind of experiment: CD25 cell surface staining on T-cells stimulated with anti-CD3 antibody alone (Biological Example 2). The experiment is classed as cell-based. To be noted: primary human total T-cells, baseline = anti-CD3/anti-CD28 stimulated cells without inhibitor, read-out: CD25 staining, Anti-CD3 stimulation, fold change over baseline; for fold induction at 1 µM: 1 μM compound; for fold induction at 8 µM: 8 μM compound.

Take `COC1CN(Cc2cc3c(c(C(F)(F)F)c2)CN(c2cccc([C@@](C)(F)C(F)(F)c4nncn4C)c2)C3=O)C1` [Compound 452, (R)-6-((3-methoxyazetidin-1-yl)methyl)-2-(3-(1,1,2-trifluoro-1-(4-methyl-4H-1,2,4-triazol-3-yl)propan-2-yl)phenyl)-4-(trifluoromethyl)isoindolin-1-one]: in experiment [1], the fold induction at 0.37 µM was ≤ 2.5, the fold induction at 1.11 µM fell in the range of 2.51 to 4 and the fold induction at 10 µM is > 4.01. In experiment [2], the fold induction at 1 µM is > 1 and the fold induction at 8 µM was > 1.

For the compound `Cn1cnnc1C(F)(F)[C@](C)(F)c1cccc(N2Cc3c(cc(CN4CC[C@@H](C#N)C4)cc3C(F)(F)F)C2=O)c1` [Compound 455, (R)-1-((3-oxo-2-(3-((R)-1,1,2-trifluoro-1-(4-methyl-4H-1,2,4-triazol-3-yl)propan-2-yl)phenyl)-7-(trifluoromethyl)isoindolin-5-yl)methyl)pyrrolidine-3-carbonitrile], in experiment [1], the fold induction at 0.37 µM is ≤ 2.5, the fold induction at 1.11 µM is 2.51 to 4 and the fold induction at 10 µM is > 4.01. Also, in experiment [2], the fold induction at 1 µM was 0.801 to 1 and the fold induction at 8 µM is > 1.

For `C[C@H](Cc1nncn1C)c1cccc(NC(=O)c2cc3cc(N4CCNCC4)ccc3cn2)c1` [Compound 472, N-{3-[(2R)-1-(4-methyl-4H-1,2,4-triazol-3-yl)propan-2-yl]phenyl}-6-(piperazin-1-yl)isoquinoline-3-carboxamide], in experiment [1], the fold induction at 0.37 µM was ≤ 2.5, the fold induction at 1.11 µM was ≤ 2.5 and the fold induction at 10 µM lay in the range of 2.51 to 4. In experiment [2], the fold induction at 1 µM is 0.801 to 1 and the fold induction at 8 µM was 0.801 to 1.

As for `Cn1cnnc1CC1(c2cccc(NC(=O)c3cc(CN4CCC5(CC5)C4)cc(C4CC4)n3)c2)COC1` [Compound 519, 4-((5-azaspiro[2.4]heptan-5-yl)methyl)-6-cyclopropyl-N-(3-(3-((4-methyl-4H-1,2,4-triazol-3-yl)methyl)oxetan-3-yl)phenyl)picolinamide], in experiment [1], the fold induction at 0.37 µM is > 4.01, the fold induction at 1.11 µM is > 4.01 and the fold induction at 10 µM was > 4.01. Further, the fold induction at 1 µM in experiment [2] is > 1.

As for `Cn1cnnc1CC1(c2cccc(N3Cc4c(cc(CN5CCC6(CC6)C5)cc4C(F)(F)F)C3=O)c2)COC1` [Compound 520, 6-((5-azaspiro[2.4]heptan-5-yl)methyl)-2-(3-(3-((4-methyl-4H-1,2,4-triazol-3-yl)methyl)oxetan-3-yl)phenyl)-4-(trifluoromethyl)isoindolin-1-one], in experiment [1], the fold induction at 0.37 µM is ≤ 2.5, the fold induction at 1.11 µM fell in the range of 2.51 to 4 and the fold induction at 10 µM was > 4.01. Further, the fold induction at 1 µM in experiment [2] was > 1.
